# Source: ChEMBL document CHEMBL1154377, “Evaluation of basic, heterocyclic ring systems as templates for use as potassium competitive acid blockers (pCABs)” (Bioorg Med Chem Lett, 2009)
# Biological target: not listed separately
# Assay: Inhibition of H+/K+ ATPase at pH 7.4
# Settings: not given
row,SMILES,pIC50
1,Cc1cccc(C)c1CNc1nc(N2CCCC2=O)cc2c(C)c(C)[nH]c12,7.4
2,Cc1[nH]c2c(NCc3ccccc3)nccc2c1C,8.4
3,Cc1cccc(C)c1CNc1nc(-c2cccc(=O)[nH]2)cc2c(C)c(C)[nH]c12,5.1
4,C=CCn1c(C)c(C)c2cc(-n3ccccc3=O)nc(NCc3c(C)cccc3C)c21,7.5
5,Cc1cccc(C)c1CNc1nc(-n2ccccc2=O)cc2c(C)c(C)[nH]c12,7.4
6,Cc1cccc(C)c1CNc1ccnn2c(C)c(C)nc12,6.1
7,Cc1cccc(C)c1CNc1nccc2cc[nH]c12,6.8
8,Cc1nc2c(OCc3ccccc3)cccn2c1CC#N,7.4
9,Cc1cccc(C)c1CNc1nccc2c1nc(C)n2C,5.3
10,Cc1cc2ncnc(NCc3c(C)cccc3C)c2s1,< 4
11,Cc1cccc(C)c1CNc1nccn2c(C)c(C)cc12,7.6
12,Cc1cccc(C)c1CNc1cccn2c(C)ncc12,4.1
13,Cc1cccc(C)c1CNc1nccc2c(C)c[nH]c12,9
14,Cc1cccc(C)c1CNc1nc(N2CCNC2=O)cc2c(C)c(C)[nH]c12,6.5

# Biological target: T1, Cytochrome P450 1A2 (Homo sapiens, UniProt P05177)
# T1 sequence (P05177 whole entry): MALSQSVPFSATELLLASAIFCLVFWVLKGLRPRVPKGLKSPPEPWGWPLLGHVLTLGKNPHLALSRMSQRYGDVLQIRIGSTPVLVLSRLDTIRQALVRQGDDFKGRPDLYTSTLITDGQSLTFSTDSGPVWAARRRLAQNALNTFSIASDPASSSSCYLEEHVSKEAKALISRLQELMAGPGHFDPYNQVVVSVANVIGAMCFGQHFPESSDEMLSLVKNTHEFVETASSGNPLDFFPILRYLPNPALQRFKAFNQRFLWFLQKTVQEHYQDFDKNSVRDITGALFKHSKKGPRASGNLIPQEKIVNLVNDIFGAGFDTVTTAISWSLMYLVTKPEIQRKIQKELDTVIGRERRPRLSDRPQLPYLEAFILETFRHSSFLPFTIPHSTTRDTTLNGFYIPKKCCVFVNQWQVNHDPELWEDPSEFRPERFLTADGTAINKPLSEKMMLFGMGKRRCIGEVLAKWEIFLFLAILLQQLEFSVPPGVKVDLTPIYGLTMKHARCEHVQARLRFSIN
# Assay: Inhibition of CYP1A2
# Type: ADME
# Settings: not given
row,SMILES,IC50 [µM]
1,Cc1cccc(C)c1CNc1nc(N2CCCC2=O)cc2c(C)c(C)[nH]c12,26
2,Cc1cccc(C)c1CNc1nc(-c2cccc(=O)[nH]2)cc2c(C)c(C)[nH]c12,> 100
3,C=CCn1c(C)c(C)c2cc(-n3ccccc3=O)nc(NCc3c(C)cccc3C)c21,62
4,Cc1cccc(C)c1CNc1nc(-n2ccccc2=O)cc2c(C)c(C)[nH]c12,29
5,Cc1nc2c(OCc3ccccc3)cccn2c1CC#N,2
6,Cc1cccc(C)c1CNc1nccc2c1nc(C)n2C,31
7,Cc1cccc(C)c1CNc1nccn2c(C)c(C)cc12,6.1
8,Cc1cccc(C)c1CNc1nc(N2CCNC2=O)cc2c(C)c(C)[nH]c12,22

# Biological target: Cytochrome P450 2C19 (Homo sapiens, UniProt P33261)
# Assay: Inhibition of CYP2C19
# Type: ADME
# Settings: not given
# Sequence of Cytochrome P450 2C19 (P33261 whole entry): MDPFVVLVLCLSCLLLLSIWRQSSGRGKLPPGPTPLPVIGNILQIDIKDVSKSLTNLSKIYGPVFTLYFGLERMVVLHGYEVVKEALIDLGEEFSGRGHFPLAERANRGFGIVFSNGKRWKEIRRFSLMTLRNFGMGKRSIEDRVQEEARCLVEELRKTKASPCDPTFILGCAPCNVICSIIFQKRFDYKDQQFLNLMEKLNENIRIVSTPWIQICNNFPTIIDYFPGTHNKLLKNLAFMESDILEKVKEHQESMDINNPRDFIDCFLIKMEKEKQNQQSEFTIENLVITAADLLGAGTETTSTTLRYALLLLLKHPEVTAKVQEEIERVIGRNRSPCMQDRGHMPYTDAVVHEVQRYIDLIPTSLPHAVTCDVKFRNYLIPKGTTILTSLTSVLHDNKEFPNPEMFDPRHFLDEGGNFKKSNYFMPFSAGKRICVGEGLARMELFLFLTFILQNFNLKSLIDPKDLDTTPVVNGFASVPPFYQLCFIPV
row,SMILES,IC50 [µM]
1,Cc1cccc(C)c1CNc1nc(N2CCCC2=O)cc2c(C)c(C)[nH]c12,6.4
2,Cc1cccc(C)c1CNc1nc(-c2cccc(=O)[nH]2)cc2c(C)c(C)[nH]c12,62
3,C=CCn1c(C)c(C)c2cc(-n3ccccc3=O)nc(NCc3c(C)cccc3C)c21,6
4,Cc1cccc(C)c1CNc1nc(-n2ccccc2=O)cc2c(C)c(C)[nH]c12,20
5,Cc1nc2c(OCc3ccccc3)cccn2c1CC#N,> 100
6,Cc1cccc(C)c1CNc1nccc2c1nc(C)n2C,27
7,Cc1cccc(C)c1CNc1nccn2c(C)c(C)cc12,4.7
8,Cc1cccc(C)c1CNc1nc(N2CCNC2=O)cc2c(C)c(C)[nH]c12,8.2

# Biological target: Cytochrome P450 2D6 (Homo sapiens, UniProt P10635)
# Assay: Inhibition of CYP2D6
# Type: ADME
# Settings: not given
# Sequence of Cytochrome P450 2D6 (P10635 whole entry): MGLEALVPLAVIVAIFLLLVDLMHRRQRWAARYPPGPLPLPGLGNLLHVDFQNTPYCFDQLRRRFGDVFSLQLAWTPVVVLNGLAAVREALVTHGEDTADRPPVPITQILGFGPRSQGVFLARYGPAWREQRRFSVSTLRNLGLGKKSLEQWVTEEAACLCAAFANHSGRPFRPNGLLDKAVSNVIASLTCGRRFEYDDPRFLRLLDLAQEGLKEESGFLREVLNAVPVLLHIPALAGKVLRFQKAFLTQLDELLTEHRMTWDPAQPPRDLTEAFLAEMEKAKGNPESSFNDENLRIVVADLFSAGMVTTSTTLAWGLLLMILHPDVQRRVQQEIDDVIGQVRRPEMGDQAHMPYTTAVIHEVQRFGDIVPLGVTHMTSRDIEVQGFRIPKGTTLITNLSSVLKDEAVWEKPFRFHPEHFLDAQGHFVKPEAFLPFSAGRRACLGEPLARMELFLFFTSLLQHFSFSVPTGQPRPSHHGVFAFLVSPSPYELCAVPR
row,SMILES,IC50 [µM]
1,Cc1cccc(C)c1CNc1nc(N2CCCC2=O)cc2c(C)c(C)[nH]c12,1.9
2,Cc1cccc(C)c1CNc1nc(-c2cccc(=O)[nH]2)cc2c(C)c(C)[nH]c12,60
3,C=CCn1c(C)c(C)c2cc(-n3ccccc3=O)nc(NCc3c(C)cccc3C)c21,26
4,Cc1cccc(C)c1CNc1nc(-n2ccccc2=O)cc2c(C)c(C)[nH]c12,> 33
5,Cc1nc2c(OCc3ccccc3)cccn2c1CC#N,82
6,Cc1cccc(C)c1CNc1nccc2c1nc(C)n2C,< 0.1
7,Cc1cccc(C)c1CNc1nccn2c(C)c(C)cc12,< 0.1
8,Cc1cccc(C)c1CNc1nc(N2CCNC2=O)cc2c(C)c(C)[nH]c12,0.7

# Biological target: T2, Cytochrome P450 3A4 (Homo sapiens, UniProt P08684)
# Assay: Inhibition of CYP3A4 using diethoxyfluorescein substrate
# Type: ADME
# Settings: not given
# T2 sequence (P08684 whole entry): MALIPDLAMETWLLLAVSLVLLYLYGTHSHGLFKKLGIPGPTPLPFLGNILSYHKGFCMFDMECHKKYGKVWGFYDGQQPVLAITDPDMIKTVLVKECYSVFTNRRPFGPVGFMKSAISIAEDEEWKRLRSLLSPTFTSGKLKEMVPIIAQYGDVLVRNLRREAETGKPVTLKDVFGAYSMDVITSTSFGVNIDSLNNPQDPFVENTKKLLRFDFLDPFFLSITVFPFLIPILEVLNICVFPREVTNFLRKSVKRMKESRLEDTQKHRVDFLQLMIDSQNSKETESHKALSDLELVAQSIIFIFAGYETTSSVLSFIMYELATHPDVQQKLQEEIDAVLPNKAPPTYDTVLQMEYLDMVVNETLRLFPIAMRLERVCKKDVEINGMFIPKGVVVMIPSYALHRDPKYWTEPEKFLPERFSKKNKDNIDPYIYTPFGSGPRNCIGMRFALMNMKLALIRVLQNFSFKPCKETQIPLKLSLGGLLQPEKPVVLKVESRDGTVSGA
row,SMILES,IC50 [µM]
1,Cc1cccc(C)c1CNc1nc(N2CCCC2=O)cc2c(C)c(C)[nH]c12,1
2,Cc1cccc(C)c1CNc1nc(-c2cccc(=O)[nH]2)cc2c(C)c(C)[nH]c12,1.3
3,C=CCn1c(C)c(C)c2cc(-n3ccccc3=O)nc(NCc3c(C)cccc3C)c21,2.4
4,Cc1cccc(C)c1CNc1nc(-n2ccccc2=O)cc2c(C)c(C)[nH]c12,3
5,Cc1nc2c(OCc3ccccc3)cccn2c1CC#N,9
6,Cc1cccc(C)c1CNc1nccc2c1nc(C)n2C,12
7,Cc1cccc(C)c1CNc1nccn2c(C)c(C)cc12,4.7
8,Cc1cccc(C)c1CNc1nc(N2CCNC2=O)cc2c(C)c(C)[nH]c12,1.6

# Biological target: T2, Cytochrome P450 3A4
# Assay: Inhibition of CYP3A4 using 7-benzyloxyquinoline substrate
# Type: ADME
# Settings: not given
row,SMILES,IC50 [µM]
1,Cc1cccc(C)c1CNc1nc(N2CCCC2=O)cc2c(C)c(C)[nH]c12,1.8
2,Cc1cccc(C)c1CNc1nc(-c2cccc(=O)[nH]2)cc2c(C)c(C)[nH]c12,2.2
3,Cc1cccc(C)c1CNc1nc(-n2ccccc2=O)cc2c(C)c(C)[nH]c12,90
4,Cc1nc2c(OCc3ccccc3)cccn2c1CC#N,12
5,Cc1cccc(C)c1CNc1nccc2c1nc(C)n2C,21
6,Cc1cccc(C)c1CNc1nccn2c(C)c(C)cc12,1.6
7,Cc1cccc(C)c1CNc1nc(N2CCNC2=O)cc2c(C)c(C)[nH]c12,1.6

# Tested on: not listed separately
# Assay: Intrinsic clearance in rat liver microsomes
# Type: ADME, Microsome
# Settings: not given
row,SMILES,CLint scaled [mL/min/kg]
1,C=CCn1c(C)c(C)c2cc(-n3ccccc3=O)nc(NCc3c(C)cccc3C)c21,20
2,Cc1cccc(C)c1CNc1nc(-n2ccccc2=O)cc2c(C)c(C)[nH]c12,2.9
3,Cc1nc2c(OCc3ccccc3)cccn2c1CC#N,8.5
4,Cc1cccc(C)c1CNc1nccc2c1nc(C)n2C,14
5,Cc1cccc(C)c1CNc1nccn2c(C)c(C)cc12,50
6,Cc1cccc(C)c1CNc1nc(N2CCNC2=O)cc2c(C)c(C)[nH]c12,6

# Tested on: not listed separately
# Assay: Intrinsic clearance in dog liver microsomes
# Type: ADME, Canis lupus familiaris, Microsome
# Settings: not given
row,SMILES,CLint scaled [mL/min/kg]
1,Cc1cccc(C)c1CNc1nccc2c1nc(C)n2C,6.5

# Tested on: not listed separately
# Assay: Intrinsic clearance in human liver microsomes
# Type: ADME, Microsome
# Settings: not given
row,SMILES,CLint scaled [mL/min/kg]
1,C=CCn1c(C)c(C)c2cc(-n3ccccc3=O)nc(NCc3c(C)cccc3C)c21,13
2,Cc1cccc(C)c1CNc1nc(-n2ccccc2=O)cc2c(C)c(C)[nH]c12,2.7
3,Cc1nc2c(OCc3ccccc3)cccn2c1CC#N,8
4,Cc1cccc(C)c1CNc1nccc2c1nc(C)n2C,3.4
5,Cc1cccc(C)c1CNc1nccn2c(C)c(C)cc12,11
6,Cc1cccc(C)c1CNc1nc(N2CCNC2=O)cc2c(C)c(C)[nH]c12,1.3

# Tested on: not listed separately
# Assay: Dissociation constant, pKa of the compound
# Type: physicochemical
# Settings: not given
row,SMILES,pKa
1,Cc1cccc(C)c1CNc1nc(-c2cccc(=O)[nH]2)cc2c(C)c(C)[nH]c12,Insoluble

# Same assay, conditions: read-out: pKa
row,SMILES,pKa
1,Cc1cccc(C)c1CNc1nc(N2CCCC2=O)cc2c(C)c(C)[nH]c12,6.32
2,Cc1[nH]c2c(NCc3ccccc3)nccc2c1C,8.79
3,C=CCn1c(C)c(C)c2cc(-n3ccccc3=O)nc(NCc3c(C)cccc3C)c21,4
4,Cc1cccc(C)c1CNc1nc(-n2ccccc2=O)cc2c(C)c(C)[nH]c12,4.71
5,Cc1cccc(C)c1CNc1nccc2cc[nH]c12,8.63
6,Cc1nc2c(OCc3ccccc3)cccn2c1CC#N,7.28
7,Cc1cccc(C)c1CNc1nccc2c1nc(C)n2C,7.49
8,Cc1cccc(C)c1CNc1nccn2c(C)c(C)cc12,7.92
9,Cc1cccc(C)c1CNc1cccn2c(C)ncc12,6.03
10,Cc1cccc(C)c1CNc1nccc2c(C)c[nH]c12,8.71

# Tested on: not listed separately
# Assay: Chromatographic hydrophobicity index at pH 7.4 by fast gradient HPLC
# Type: physicochemical
# Settings: buffer
row,SMILES,chromatographic logD
1,Cc1cccc(C)c1CNc1nc(N2CCCC2=O)cc2c(C)c(C)[nH]c12,3.77
2,Cc1cccc(C)c1CNc1nc(-c2cccc(=O)[nH]2)cc2c(C)c(C)[nH]c12,4.12
3,C=CCn1c(C)c(C)c2cc(-n3ccccc3=O)nc(NCc3c(C)cccc3C)c21,4.06
4,Cc1cccc(C)c1CNc1nc(-n2ccccc2=O)cc2c(C)c(C)[nH]c12,3.18
5,Cc1cccc(C)c1CNc1ccnn2c(C)c(C)nc12,3.53
6,Cc1nc2c(OCc3ccccc3)cccn2c1CC#N,4.2
7,Cc1cccc(C)c1CNc1nccc2c1nc(C)n2C,2.09
8,Cc1cccc(C)c1CNc1nccn2c(C)c(C)cc12,3.54
9,Cc1cccc(C)c1CNc1nc(N2CCNC2=O)cc2c(C)c(C)[nH]c12,2.54

# Tested on: not listed separately
# Assay: Inhibition of H+/K+ ATPase in parietal cells assessed as inhibition of pentagastrin-stimulated [14C]aminopyrine accumulation at 50 nM
# Type: cell-based
# Settings: not given
row,SMILES,inhibition [%]
1,Cc1[nH]c2c(NCc3ccccc3)nccc2c1C,98.5
2,Cc1cccc(C)c1CNc1nccc2c(C)c[nH]c12,92.5

# Biological target: Cytochrome P450 2C9 (Homo sapiens, UniProt P11712)
# Assay: not given
# Settings: not given
# Sequence of Cytochrome P450 2C9 (P11712 whole entry): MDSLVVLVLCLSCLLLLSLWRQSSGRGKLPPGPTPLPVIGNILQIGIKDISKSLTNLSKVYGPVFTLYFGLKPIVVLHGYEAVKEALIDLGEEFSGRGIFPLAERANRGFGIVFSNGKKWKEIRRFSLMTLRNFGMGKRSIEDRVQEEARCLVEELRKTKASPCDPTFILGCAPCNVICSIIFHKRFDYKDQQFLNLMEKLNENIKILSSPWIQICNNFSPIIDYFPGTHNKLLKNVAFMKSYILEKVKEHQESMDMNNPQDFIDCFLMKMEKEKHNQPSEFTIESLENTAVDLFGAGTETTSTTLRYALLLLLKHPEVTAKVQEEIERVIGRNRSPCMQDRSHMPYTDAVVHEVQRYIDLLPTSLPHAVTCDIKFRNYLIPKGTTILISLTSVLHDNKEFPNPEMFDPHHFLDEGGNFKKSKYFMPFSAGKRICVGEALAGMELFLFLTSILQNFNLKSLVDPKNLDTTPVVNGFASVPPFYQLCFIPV
row,SMILES,IC50 [µM]
1,Cc1cccc(C)c1CNc1nc(N2CCCC2=O)cc2c(C)c(C)[nH]c12,1.4
2,Cc1cccc(C)c1CNc1nc(-c2cccc(=O)[nH]2)cc2c(C)c(C)[nH]c12,2.3
3,C=CCn1c(C)c(C)c2cc(-n3ccccc3=O)nc(NCc3c(C)cccc3C)c21,0.5
4,Cc1cccc(C)c1CNc1nc(-n2ccccc2=O)cc2c(C)c(C)[nH]c12,3.3
5,Cc1cccc(C)c1CNc1nccc2c1nc(C)n2C,68
6,Cc1cccc(C)c1CNc1nccn2c(C)c(C)cc12,14
7,Cc1cccc(C)c1CNc1nc(N2CCNC2=O)cc2c(C)c(C)[nH]c12,2.7

# Tested on: not listed separately
# Assay: Inhibition of H+/K+ ATPase in parietal cells assessed as inhibition of histamine-stimulated [14C]aminopyrine accumulation
# Settings: not given
row,SMILES,IC50 [µM]
1,Cc1cccc(C)c1CNc1nc(N2CCCC2=O)cc2c(C)c(C)[nH]c12,0.158
2,Cc1cccc(C)c1CNc1nc(-c2cccc(=O)[nH]2)cc2c(C)c(C)[nH]c12,0.316
3,Cc1nc2c(OCc3ccccc3)cccn2c1CC#N,0.0166
4,Cc1cccc(C)c1CNc1nccc2c1nc(C)n2C,0.0741
5,Cc1cccc(C)c1CNc1nccn2c(C)c(C)cc12,0.141
6,Cc1cccc(C)c1CNc1nc(N2CCNC2=O)cc2c(C)c(C)[nH]c12,0.158
